US10190104B2, “Isoform of anaplastic lymphoma kinase and its uses” (Memorial Sloan-Kettering Cancer Center, priority 2014, dated 2019)

Tested on: ALK-transformed Ba/F3 cells
Test: Cell viability assay of Ba/F3 cells expressing ALK isoforms treated with ALK inhibitors
Format: cell-based, murine
Settings: cell viability after 72 hours; for IL-3-independent growth of ALK-transformed Ba/F3 cells: absence of IL-3, CellTiter-Glo; for growth in the presence of IL-3: presence of IL-3 (1 ng/ml)
Protocol: Ba/F3 cells were stably transduced with MSCV-ALK^variant-IRES-GFP constructs with a multiplicity of infection (MOI) of ˜0.26. Based on the MOI calculations, ˜78% of cells were uninfected, ˜20% of cells were infected with one virus particle, and ˜2% of cells were infected by more than one viral particle. Stably transduced Ba/F3 cells were cultured in RPMI medium supplemented with IL-3 (1 ng ml-1) and the transduction rate of 20% was validated using flow cytometry for GFP, that was co-expressed with the ALK variants. For the cell proliferation assay, transduced Ba/F3 cells were transferred into IL-3 depleted RPMI medium and cell growth was quantified every 2-4 days with a luminescence assay (#G7571, Promega). […] All drugs were suspended in DMSO. The cell viability was assessed after 72 hours by a luminescence assay CellTiter-Glo (#G7571, Promega). Results were normalized to growth of cells in a medium containing an equivalent volume of DMSO. The inhibition curve was determined with GraphPad Prism 6.0 software using the ‘log(inhibitor) vs. response variable slope’ non-linear regression model.

Compound | IL-3-independent growth of ALK-transformed Ba/F3 cells | growth in the presence of IL-3
COc1cc(N2CCC(N3CCN(C)CC3)CC2)ccc1Nc1ncc(Cl)c(Nc2ccccc2S(=O)(=O)C(C)C)n1 [TAE-684, NVP-TAE684] | effectively inhibited | no effect
Cc1cc(Nc2ncc(Cl)c(Nc3ccccc3S(=O)(=O)C(C)C)n2)c(OC(C)C)cc1C1CCNCC1 [ceritinib] | effectively inhibited | no effect
